Assay results: US20250101077A1, “PEPTIDES AND PHARMACEUTICAL COMPOSITION FOR THE TREATMENT OF TUMOURS” (UNIVERSIDAD DE SALAMANCA, priority 2022, published 2025)

Columns and labels:
[1] = system: G166 human glioblastoma stem cells; experiment: MTT colour viability test and phase-contrast images; assay type: cell-based; details: 50 μM; for proliferation and survival of human glioblastoma stem cells: phase-contrast images at 48h and MTT at 0, 24, 48 and 72h, FIGS. 5 and 6; for morphology and viability of glioblastoma stem cells (MTT assay): FIG. 1
Method: The human glioblastoma stem cell line G166 was obtained from Biorep, deposited and characterised in Pollard et al., Cell Stem Cell. 4(6):568-80 (2009). The human glioblastoma stem cell line E22 was also obtained from Pollard lab (U. Edinburgh).
In all these cases, cells were cultured in neurobasal culture medium supplemented with 2% B27, 1% N2, 20 ng/mL EGF and 20 ng/mL bFGF, in laminin-coated culture plates, to generate adherent cell cultures. Thanks to their self-renewal capacity, when these cells are expanded in adherent cultures under these culture conditions, they maintain the above-mentioned properties, i.e. the characteristic glioblastoma stem cell phenotype and genotype, including their tumourigenicity, for more than 20 passages.
(§1) Different peptides based on the 266-283 sequence of Cx43 fused to TAT at its N-terminal end were used, all at a concentration of 50 μM, in culture medium and their effect was analysed at different treatment times. In parallel, these cells were analysed in the absence of treatment (control), in the presence of the antitumour peptide TAT-Cx43266-283 ([…]; corresponding to the peptide described in patent WO2014191608 A1 linked to the cell internalisation sequence TAT; SEQ ID NO: 35) and in the presence of the peptides without antitumour activity, TAT (YGRKKRRQRRR; SEQ ID NO: 7) and TAT-Cx43274-291 (YGRKKRRQRRR PTAPLSPMSPPGYKLVTG; SEQ ID NO: 26). For pull-down assays and visualization the peptides were fused to biotin via a C-terminal lysine.
For this study, cells were seeded at low density and the number of viable cells was determined at different days of treatment. For this purpose, the medium was removed and the cells were incubated with 300 μL of PBS in the presence of MTT (0.5 mg/mL) for 75 minutes in the dark at 37° C. in a CO2 incubator. The medium was then removed, and 500 μL of DMSO was added. The cells were shaken in the dark for 10 minutes. Finally, absorbance was determined at 570 nm.

albumin = albumin (Homo sapiens, UniProt P02768); experiment: Albumin binding by Western blot under native or denaturing and reducing conditions; details: 2.5 μM biotinylated peptide plus 0.1% (w/v) albumin in PBS, native conditions, FIG. 8
Method: FIG. 8. TAT-Cx43266-283 and TAT-Cx43266-275 bind to albumin via a cysteine dependent mechanism. TAT, TAT-Cx43274-291, TAT-Cx43266-283, TAT-Cx43266-283F/A, TAT-Cx43266-283C/A and TAT-Cx43266-275 were fused to biotin to allow their analysis by Western blot. Solutions of each peptide plus albumin in PBS were analyzed in native (N) or denaturing and reducing conditions (DR) to identify their interaction with albumin. […] Note that the sensitivity of the Ponceau staining was not enough to detect the peptide at about 10 kDa, therefore only albumin bands are shown. […] Note that TAT-Cx43266-283 and TAT-Cx43266-275 appear bound to albumin under native conditions while denaturation and reduction promoted the release of these peptides.
Western blotting was performed as described previously (Jaraiz-Rodriguez, M. et al., Neuro-Oncology, 22, 493-504 (2020)). Briefly, 2.5 μM biotinylated peptides plus 0.1% (w/v) albumin in PBS were analysed by Western blot under native (N) or denaturing and reducing (DR) conditions. For native conditions, samples were analysed without further treatment. For denaturing and reducing conditions samples were treated with 0.1 M β-mercaptoethanol and 4% SDS and heated at 99° C. for 5 min. Samples were subjected to electrophoresis on NuPAGE Novex Bis-Tris 4-12% Midi gels (Life Technologies) at room temperature and constant voltage. Proteins were transferred to a nitrocellulose membrane (iBlot Gel Transfer Stacks Nitrocellulose) using an iBlot dry blotting system (Life Technologies). Membranes were incubated with Ponceau S staining solution for protein staining in red. After washing the membranes were blocked with 5% non-fat dry milk in PBS and then incubated with HRP-Streptavidin (1:5000; Dako P0397) for 30 minutes at room temperature. After extensive washing, the membranes were developed with a chemiluminescent substrate (Western Blotting Luminol Reagent; Santa Cruz Biotechnology) in a MicroChemi imaging system (Bioimaging Systems).

[2] = system: human glioblastoma stem cells; experiment: Internalisation of biotin-fused peptides; assay type: cell-based; details: peptides fused to biotin
Method: as §1

Csk = molecular target: T1, Csk (Homo sapiens, UniProt P41240); experiment: Pull-down of biotinylated peptides with NeutrAvidin beads, Western blot; assay type: binding; details: 50 μM biotinylated peptide, 30 min, E22 glioblastoma stem cells, FIG. 9
T1 construct: endogenous in cells; host or cells: human E22 glioblastoma stem cells
T1 sequence (P41240 whole entry): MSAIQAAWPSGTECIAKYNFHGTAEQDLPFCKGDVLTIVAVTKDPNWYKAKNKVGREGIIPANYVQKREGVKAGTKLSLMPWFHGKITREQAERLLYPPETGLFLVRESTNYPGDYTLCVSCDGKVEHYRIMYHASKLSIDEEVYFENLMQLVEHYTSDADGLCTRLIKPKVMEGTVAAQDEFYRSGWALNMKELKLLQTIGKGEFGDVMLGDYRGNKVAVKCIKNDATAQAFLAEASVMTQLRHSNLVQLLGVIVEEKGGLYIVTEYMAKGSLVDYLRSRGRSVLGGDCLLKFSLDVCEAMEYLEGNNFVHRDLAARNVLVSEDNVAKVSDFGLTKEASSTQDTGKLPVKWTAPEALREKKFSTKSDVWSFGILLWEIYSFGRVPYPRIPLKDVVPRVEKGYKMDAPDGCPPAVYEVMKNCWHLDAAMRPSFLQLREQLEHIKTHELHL
Method: (§2) FIG. 9. Intracellular interactions of biotinylated TAT-Cx43266-283, TAT-Cx43266-283C/A and TAT-Cx43266-275 in human glioblastoma stem cells. Human E22 glioblastoma stem cells were incubated with 50 μM biotinylated TAT-Cx43266-283, TAT-Cx43266-283C/A and TAT-Cx43266-275. After 30 min the cells were lysed and biotinylated peptides attached to their intracellular partners were pulled down with NeutrAvidin beads. The eluted proteins were loaded and analyzed by Western blot to study the levels of c-Src, Y416-Src, and Csk.
(§3) Pulldown experiments were performed as described in González-Sánchez A. et al., Oncotarget, 7(31):49819-49833 (2016); Jaraiz-Rodriguez M. et al., J Vis Exp. (130):56457 (2017)). Confluent cells grown in 25 cm^2 flasks were incubated with 50 μM biotinylated peptides for 30 min. Proteins were then collected in 0.5 ml of lysis buffer (20 mM Tris-HCl (pH 8.0), 137 mM NaCl, 1% IGEPAL, 1 mM PMSF, protease cocktail (1:100; Cocktail Ill, Calbiochem), 1 mM NaF and 0.1 mM Na3VO4). Lysates were centrifuged at 11000×g for 10 minutes at 4° C., and the supernatants were recovered. A 50-μl aliquot of each lysate was used to analyze the protein content, and the remaining lysate was incubated with NeutrAvidin-Agarose (Thermo Scientific, Rockford, IL, USA; Ref. 29200) for 12 h at 4° C. with gentle shaking. The avidin beads bound with the peptides were collected by centrifugation (3000×g for 1 minutes at 4° C.). The beads were then washed five times with lysis buffer, and the bound proteins were eluted and analyzed by Western blotting under denaturing and reducing contidions. The membranes were blocked with 5% non-fat dry milk in PBS-T and then incubated overnight at 4° C. with the primary antibodies against rabbit CSK (1:250; Cell Signaling Technology, Ref. 4980), rabbit Y416 Src (1:250, Cell Signaling Technology, Ref. 2101) and mouse total c-Src (1:500, Cell Signaling Technology, Ref. 2110). To detect biotinylated peptides, the membranes were incubated with HRP-conjugated streptavidin in PBS (1:5000; Dako Ref.P0397) for 30 minutes and then developed with a chemiluminescent substrate.

Y416-Src = molecular target: T2, Y416-Src (Homo sapiens, UniProt P12931); experiment: as above; assay type: binding; details: 50 μM biotinylated peptide, 30 min, E22 glioblastoma stem cells, FIG. 9
T2 construct: endogenous in cells; host or cells: human E22 glioblastoma stem cells
Method: as §2, §3

c-Src [3] = molecular target: T3, c-Src (Homo sapiens, UniProt P12931); experiment: as above; assay type: binding; parameters: the cells were lysed and biotinylated peptides attached to their intracellular partners were pulled down with NeutrAvidin beads; endogenous in cells; host or cells: human E22 glioblastoma stem cells; details: 50 μM biotinylated peptide, 30 min, E22 glioblastoma stem cells, FIG. 9
Method: as §2
as §3, with “To detect biotinylated peptides, the membranes were incubated with HRP-conjugated streptavidin in PBS (1:5000; Dako Ref.P0397) for 30 minutes and then developed with a chemiluminescent substrate.” left out

[4] = system: G166 human glioblastoma stem cells; experiment: Migration by live cell microscope videos; assay type: cell-based; details: 50 μM, frames every 100 minutes, FIG. 7
Method: FIG. 7. Representative images of the effect of Cx43-based penetrating peptides on the migration of human glioblastoma stem cells. G166 human glioblastoma stem cells were treated in the absence (control) or presence of TAT-Cx43266-283 or TAT-Cx43266-275, both at a concentration of 50 μM. Phase-contrast videos of the cells were made using a live cell microscope. Shown are 3 representative frames taken every 100 minutes of the cells in the control condition, TAT-Cx43266-283 and TAT-Cx43266-275. 3 cells in each condition have been selected and numbered.
Migration is the cause of these tumour cells invading the surrounding parenchyma, escaping surgery and causing the recurrence of these tumours, which is the main cause of mortality.

c-Src [5] = molecular target: T3, c-Src; details: from cited publications; cited from earlier work
[6] = system: human and mouse glioblastoma stem cells; details: in vitro and in vivo, from cited publications; cited from earlier work

YGRKKRRQRRRCSSPTAPLSPMSPPGYK [TAT-Cx43271-287]
glioblastoma stem cell survival and proliferation (MTT assay) ([1]; 72h, FIG. 2): slightly reduces glioblastoma stem cell proliferation

YGRKKRRQRRR PTAPLSPMSPPGYKLVTG (YGRKKRRQRRRPTAPLSPMSPPGYKLVTG) [TAT-Cx43274-291, reference compound]
proliferation and survival of human glioblastoma stem cells [1]: do not produce significant effects

YGRKKRRQRRRAYANGCSSPTAPLSPMSP [TAT-Cx43266-283 F/A]
tumour cell morphology and viability (MTT assay) ([1]; 48h, FIG. 4): affects tumour cell morphology and viability, but to a much lesser extent | binding to albumin (albumin): did not affect the interaction with albumin

YGRKKRRQRRRAYFNGCSSPTAPLSPM [TAT-Cx43266-281]
proliferation and survival of human glioblastoma stem cells [1]: reduce proliferation and survival | internalisation in human glioblastoma stem cells [2]: able to be internalised

YGRKKRRQRRR (Cell internalisation sequence) [TAT, reference compound]
proliferation and survival of human glioblastoma stem cells [1]: do not produce significant effects

YGRKKRRQRRRAYFNGASSPTAPLSPMSP [TAT-Cx43266-283 C/A]
morphology and viability of glioblastoma stem cells (MTT assay) ([1]; 48h): very similar to that of untreated (control) cells | binding to albumin (albumin): disrupted albumin-peptide interaction | intracellular interaction with Csk (Csk): did not show significant interactions | intracellular interaction with Y416-Src (Y416-Src): did not show significant interactions | intracellular interaction with c-Src (c-Src [3]): did not show significant interactions

YGRKKRRQRRRAYFNGCSSPTAPLS [TAT-Cx43266-279]
proliferation and survival of human glioblastoma stem cells [1]: reduce proliferation and survival | internalisation in human glioblastoma stem cells [2]: able to be internalised

YGRKKRRQRRRAYFNGCSSPT [TAT-Cx43266-275]
anti-tumour effect compared with the other peptides (MTT assay) ([1]; 0-72h, FIG. 6): significantly higher than the rest of the peptides | proliferation and survival of human glioblastoma stem cells [1]: reduce proliferation and survival | internalisation in human glioblastoma stem cells [2]: able to be internalised | migration of human glioblastoma stem cells [4]: reduces the migration | binding to albumin (albumin): bind to albumin under native conditions | intracellular interaction with Csk (Csk): interact preferentially | intracellular interaction with Y416-Src (Y416-Src): interact preferentially | intracellular interaction with c-Src (c-Src [3]): interact preferentially

YGRKKRRQRRRAYFNGCSSPTAP [TAT-Cx43266-277]
proliferation and survival of human glioblastoma stem cells [1]: reduce proliferation and survival | internalisation in human glioblastoma stem cells [2]: able to be internalised

YGRKKRRQRRRFNGCSSPTAPLSPMSP [TAT-Cx43268-283]
ability to reduce proliferation (MTT assay) ([1]; 72h, FIG. 3): less ability to reduce proliferation than TAT-Cx43266-283

YGRKKRRQRRRAYFNGCSSPTAPLSPMSP [TAT-Cx43266-283, reference compound]
morphology and viability of glioblastoma stem cells (MTT assay) ([1]; 48h): significantly reduces the viability | proliferation and survival of human glioblastoma stem cells [1]: reduce proliferation and survival | internalisation in human glioblastoma stem cells [2]: able to be internalised | migration of human glioblastoma stem cells [4]: reduces the migration | binding to albumin (albumin): bind to albumin under native conditions | intracellular interaction with Csk (Csk): interact preferentially | intracellular interaction with Y416-Src (Y416-Src): interact preferentially | c-Src activity (c-Src [5]): inhibit c-Src activity | antitumour effect [6]: potent antitumour effect | intracellular interaction with c-Src (c-Src [3]): interact preferentially
